From PMC2984425, “Safety and pharmacokinetics of novel selective vascular endothelial growth factor receptor-2 inhibitor YN968D1 in patients with advanced malignancies” (BMC Cancer, 2010)

Test system: patients with advanced solid tumors
Test: Treatment-related adverse events graded by NCI-CTC v3.0
Type: in vivo, human
Experimental: Medical records and laboratory tests were obtained during screening. Physical examination, routine laboratory evaluations, and performance status were assessed at baseline and at specified time points throughout the trial. AEs and concomitant medications were recorded at the end of each cycle. The safety evaluation period extended through 30 days from the last dose of study drug or through recovery to grade 1 or better from all acute toxicities associated with drug administration. Toxicity was evaluated and graded according to the NCI-CTC for Adverse Events, version 3.0.

N#CC1(c2ccc(NC(=O)c3cccnc3NCc3ccncc3)cc2)CCCC1 [apatinib]
Anemia grade 1-2, % (250 mg cohort): 25.0%
Anemia grade 1-2, No. (250 mg cohort): 1
Hyperbilirubinemia grade 3-4, % (250 mg cohort): 25%
Hyperbilirubinemia grade 3-4, No. (250 mg cohort): 1
Hypertension grade 1-2, % (250 mg cohort): 50%
Hypertension grade 1-2, No. (250 mg cohort): 2
Infection grade 1-2, % (250 mg cohort): 25.0%
Infection grade 1-2, No. (250 mg cohort): 1
Proteinuria grade 3-4, % (250 mg cohort): 25.0%
Proteinuria grade 3-4, No. (250 mg cohort): 1
Thrombocytopenia grade 1-2, % (250 mg cohort): 25.0%
Thrombocytopenia grade 1-2, No. (250 mg cohort): 1
Transaminase Increased grade 1-2, % (250 mg cohort): 50.0%
Transaminase Increased grade 1-2, No. (250 mg cohort): 2
Anemia grade 1-2, % (500 mg cohort): 9%
Anemia grade 1-2, No. (500 mg cohort): 1
Anorexia grade 1-2, % (500 mg cohort): 18.2%
Anorexia grade 1-2, No. (500 mg cohort): 2
Diarrhea grade 1-2, % (500 mg cohort): 9%
Diarrhea grade 1-2, No. (500 mg cohort): 1
Fatigue grade 1-2, % (500 mg cohort): 9%
Fatigue grade 1-2, No. (500 mg cohort): 1
Hand-Food Syndrome grade 1-2, % (500 mg cohort): 36.4%
Hand-Food Syndrome grade 1-2, No. (500 mg cohort): 4
Hand-Food Syndrome grade 3-4, % (500 mg cohort): 9%
Hand-Food Syndrome grade 3-4, No. (500 mg cohort): 1
Hemorrhage grade 1-2, % (500 mg cohort): 36.4%
Hemorrhage grade 1-2, No. (500 mg cohort): 4
Hemorrhage grade 3-4, % (500 mg cohort): 9%
Hemorrhage grade 3-4, No. (500 mg cohort): 1
Hoarseness grade 1-2, % (500 mg cohort): 9%
Hoarseness grade 1-2, No. (500 mg cohort): 1
Hypertension grade 1-2, % (500 mg cohort): 63.6%
Hypertension grade 1-2, No. (500 mg cohort): 7
Infection grade 1-2, % (500 mg cohort): 9%
Infection grade 1-2, No. (500 mg cohort): 1
Mucosal ulcers grade 1-2, % (500 mg cohort): 18.2%
Mucosal ulcers grade 1-2, No. (500 mg cohort): 2
Neutropenia grade 1-2, % (500 mg cohort): 18.2%
Neutropenia grade 1-2, No. (500 mg cohort): 2
Neutropenia grade 3-4, % (500 mg cohort): 18.2%
Neutropenia grade 3-4, No. (500 mg cohort): 2
Pain grade 1-2, % (500 mg cohort): 36.4%
Pain grade 1-2, No. (500 mg cohort): 4
Pain grade 3-4, % (500 mg cohort): 18.2%
Pain grade 3-4, No. (500 mg cohort): 2
Proteinuria grade 1-2, % (500 mg cohort): 36.4%
Proteinuria grade 1-2, No. (500 mg cohort): 4
Proteinuria grade 3-4, % (500 mg cohort): 9%
Proteinuria grade 3-4, No. (500 mg cohort): 1
Rash grade 1-2, % (500 mg cohort): 9%
Rash grade 1-2, No. (500 mg cohort): 1
Thrombocytopenia grade 1-2, % (500 mg cohort): 18.2%
Thrombocytopenia grade 1-2, No. (500 mg cohort): 2
Thrombocytopenia grade 3-4, % (500 mg cohort): 0%
Thrombocytopenia grade 3-4, No. (500 mg cohort): 0
Transaminase Increased grade 1-2, % (500 mg cohort): 9%
Transaminase Increased grade 1-2, No. (500 mg cohort): 1
Transaminase Increased grade 3-4, % (500 mg cohort): 9%
Transaminase Increased grade 3-4, No. (500 mg cohort): 1
Vomiting grade 1-2, % (500 mg cohort): 0%
Vomiting grade 1-2, No. (500 mg cohort): 0
Albinism grade 1-2, % (750 mg cohort): 6.7%
Albinism grade 1-2, No. (750 mg cohort): 1
Anemia grade 1-2, % (750 mg cohort): 20%
Anemia grade 1-2, No. (750 mg cohort): 3
Anorexia grade 1-2, % (750 mg cohort): 20%
Anorexia grade 1-2, No. (750 mg cohort): 3
Diarrhea grade 1-2, % (750 mg cohort): 20%
Diarrhea grade 1-2, No. (750 mg cohort): 3
Fatigue grade 1-2, % (750 mg cohort): 26.7%
Fatigue grade 1-2, No. (750 mg cohort): 4
Fatigue grade 3-4, % (750 mg cohort): 6.7%
Fatigue grade 3-4, No. (750 mg cohort): 1
Hand-Food Syndrome grade 1-2, % (750 mg cohort): 46.7%
Hand-Food Syndrome grade 1-2, No. (750 mg cohort): 7
Hand-Food Syndrome grade 3-4, % (750 mg cohort): 13.3%
Hand-Food Syndrome grade 3-4, No. (750 mg cohort): 2
Hemorrhage grade 1-2, % (750 mg cohort): 33.3%
Hemorrhage grade 1-2, No. (750 mg cohort): 5
Hoarseness grade 1-2, % (750 mg cohort): 13.3%
Hoarseness grade 1-2, No. (750 mg cohort): 2
Hypertension grade 1-2, % (750 mg cohort): 60%
Hypertension grade 1-2, No. (750 mg cohort): 9
Hypertension grade 3-4, % (750 mg cohort): 13.3%
Hypertension grade 3-4, No. (750 mg cohort): 2
Infection grade 1-2, % (750 mg cohort): 26.7%
Infection grade 1-2, No. (750 mg cohort): 4
Mucosal ulcers grade 1-2, % (750 mg cohort): 13.3%
Mucosal ulcers grade 1-2, No. (750 mg cohort): 2
Mucosal ulcers grade 3-4, % (750 mg cohort): 13.3%
Mucosal ulcers grade 3-4, No. (750 mg cohort): 2
Neutropenia grade 1-2, % (750 mg cohort): 46.7%
Neutropenia grade 1-2, No. (750 mg cohort): 7
Pain grade 1-2, % (750 mg cohort): 26.7%
Pain grade 1-2, No. (750 mg cohort): 4
Pain grade 3-4, % (750 mg cohort): 13.3%
Pain grade 3-4, No. (750 mg cohort): 2
Proteinuria grade 1-2, % (750 mg cohort): 46.67%
Proteinuria grade 1-2, No. (750 mg cohort): 7
Proteinuria grade 3-4, % (750 mg cohort): 20%
Proteinuria grade 3-4, No. (750 mg cohort): 3
Rash grade 1-2, % (750 mg cohort): 6.7%
Rash grade 1-2, No. (750 mg cohort): 1
Thrombocytopenia grade 1-2, % (750 mg cohort): 40%
Thrombocytopenia grade 1-2, No. (750 mg cohort): 6
Transaminase Increased grade 1-2, % (750 mg cohort): 40%
Transaminase Increased grade 1-2, No. (750 mg cohort): 6
Vomiting grade 1-2, % (750 mg cohort): 26.7%
Vomiting grade 1-2, No. (750 mg cohort): 4
Anemia grade 1-2, % (850 mg cohort): 15.4%
Anemia grade 1-2, No. (850 mg cohort): 2
Anemia grade 3-4, % (850 mg cohort): 7.7%
Anemia grade 3-4, No. (850 mg cohort): 1
Anorexia grade 1-2, % (850 mg cohort): 7.7%
Anorexia grade 1-2, No. (850 mg cohort): 1
Diarrhea grade 1-2, % (850 mg cohort): 15.4%
Diarrhea grade 1-2, No. (850 mg cohort): 2
Dyspnea grade 1-2, % (850 mg cohort): 7.7%
Dyspnea grade 1-2, No. (850 mg cohort): 1
Fatigue grade 1-2, % (850 mg cohort): 30.8%
Fatigue grade 1-2, No. (850 mg cohort): 4
Hand-Food Syndrome grade 1-2, % (850 mg cohort): 30.8%
Hand-Food Syndrome grade 1-2, No. (850 mg cohort): 4
Hand-Food Syndrome grade 3-4, % (850 mg cohort): 15.4%
Hand-Food Syndrome grade 3-4, No. (850 mg cohort): 2
Hemorrhage grade 1-2, % (850 mg cohort): 7.7%
Hemorrhage grade 1-2, No. (850 mg cohort): 1
Hoarseness grade 1-2, % (850 mg cohort): 7.7%
